2 compounds from patent publication US20240148679A1, “METHODS AND COMPOSITIONS RELATED TO TREATMENT AND PREVENTION OF CANCER BY INHIBITION OF DGAT1 AND DGAT2” (Ohio State Innovation Foundation, priority 2019, published 2024) can be followed below.

What all share (assay type): cell-based, human
Test [1] relates to GBM cells. Description: Lipid droplet (BODIPY 493/503) number and TG (TLC) levels in GBM cells. Conditions: 24 hours; for LDs/TG levels: concurrently inhibiting DGAT1 and DGAT2 (A-922500 + PF-06424439), vs DGAT1 inhibition alone; for number of LDs and levels of TG: single inhibitor, 20 μg/ml, all examined GBM cells. The method, then:
(A) RT-qPCR analysis of DGAT1 vs. DGAT2 mRNA expression in GBM cells (U251 and GBM30) and in liver cancer cell line (HepG2). The results are shown as mean±SD (n=3). Statistical significance was determined by a paired Student's t-test. *P<0.01; n.s., not significant. (B) Representative fluorescence imaging of LDs stained with BODIPY 493/503 (green) (upper panels) and TLC analysis of TG levels (lower panels) in GBM and liver cancer cells after treatments with the DGAT1 inhibitor A-922500 (20 μg/ml) or DGAT2 inhibitor PF-06424439 ([…]) alone or in combination for 24 hr. Nuclei were stained with Hoechst 33342 (blue). Scale bar, 10 m. LDs were quantified by the ImageJ software in more than 30 cells in each treatment group (mean±SEM). TG levels were quantified by the ImageJ software and normalized to the untreated control group (mean±SD, n=3). Statistical significance was determined by one-way ANOVA. * P<0.001; #P<0.05. (C) Percentage of dead GBM or liver cancer cells after treatment with DGAT1 or DGAT2 inhibitors alone or in combination for 3 days as in panel B. Live and dead cells were counted after trypan blue staining (mean SD, n=3). Statistical significance was determined by one-way ANOVA. * P<0.0001. (D) Western blot analysis of DGAT1 expression in membrane extracts from GBM and liver cancer cells after infection with shRNA-expressing lentivirus against DGAT1 for 48 hr. […] Statistical significance was determined by one-way ANOVA. * P<0.01. (F) Representative fluorescence images of LDs stained with BODIPY 493/503 (upper panels) and TLC analysis of TG levels (lower panels) in GBM and liver cancer cells after lentivirus-mediated shRNA knockdown of DGAT1 or DGAT2 alone or in combination for 48 hr. […] Quantification and significance analysis of LDs and TG levels in different groups were the same as in panel B. * P<0.001; #P<0.05. […] Cell death percentage and significance were determined as in panel c (mean±SD, n=3). *P<0.0001; #P<0.001.
(A) RT-qPCR analysis of DGAT1 vs. DGAT2 mRNA levels in different types of cancer cell lines using 3 pairs of different primers. […] Statistical significance was determined by Student's t-test. *P<0.01. (B) Representative fluorescence imaging of LDs stained with BODIPY 493/503 (green) (upper panels) and TLC analysis of TG levels (lower panels) in GBM cells after treatment with the DGAT1 inhibitor A-922500 (20 μg/ml) or DGAT2 inhibitor PF-06424439 (20 μg/ml) for 24 hr. […] LDs were quantified by the ImageJ software in more than 30 cells in each treatment group (mean±SEM). TG levels were quantified by the ImageJ software and normalized to control group (mean±SD, n=3). Statistical significance was determined by one-way ANOVA. *P<0.001; #P<0.05. […] Statistical significance was determined by one-way ANOVA. *P<0.001. […]

The subject of test [2] is HepG2 cells. Nature of the test: Lipid droplet and TG levels in liver cancer cell line HepG2. The method, then:
(A) RT-qPCR analysis of DGAT1 vs. DGAT2 mRNA expression in GBM cells (U251 and GBM30) and in liver cancer cell line (HepG2). The results are shown as mean±SD (n=3). Statistical significance was determined by a paired Student's t-test. *P<0.01; n.s., not significant. (B) Representative fluorescence imaging of LDs stained with BODIPY 493/503 (green) (upper panels) and TLC analysis of TG levels (lower panels) in GBM and liver cancer cells after treatments with the DGAT1 inhibitor A-922500 (20 μg/ml) or DGAT2 inhibitor PF-06424439 ([…]) alone or in combination for 24 hr. Nuclei were stained with Hoechst 33342 (blue). Scale bar, 10 m. LDs were quantified by the ImageJ software in more than 30 cells in each treatment group (mean±SEM). TG levels were quantified by the ImageJ software and normalized to the untreated control group (mean±SD, n=3). Statistical significance was determined by one-way ANOVA. * P<0.001; #P<0.05. (C) Percentage of dead GBM or liver cancer cells after treatment with DGAT1 or DGAT2 inhibitors alone or in combination for 3 days as in panel B. Live and dead cells were counted after trypan blue staining (mean SD, n=3). Statistical significance was determined by one-way ANOVA. * P<0.0001. (D) Western blot analysis of DGAT1 expression in membrane extracts from GBM and liver cancer cells after infection with shRNA-expressing lentivirus against DGAT1 for 48 hr. PDIA1, an ER protein marker, was used as an internal control. (E) RT-qPCR analysis of DGAT2 mRNA expression in GBM and liver cancer cells after infection with shRNA-expressing lentivirus against DGAT2 for 48 hr. The expression level was normalized to control cells and shown as mean±SD (n=3). Statistical significance was determined by one-way ANOVA. * P<0.01. (F) Representative fluorescence images of LDs stained with BODIPY 493/503 (upper panels) and TLC analysis of TG levels (lower panels) in GBM and liver cancer cells after lentivirus-mediated shRNA knockdown of DGAT1 or DGAT2 alone or in combination for 48 hr. Scale bar, 10 m. Quantification and significance analysis of LDs and TG levels in different groups were the same as in panel B. * P<0.001; #P<0.05. (G) Percentage of dead GBM or liver cancer cells after lentivirus-mediated shRNA knockdown of DGAT1 or DGAT2 alone or in combination for 4 days. Cell death percentage and significance were determined as in panel c (mean±SD, n=3). *P<0.0001; #P<0.001. […]
For live cells, lipid droplets were stained with BODIPY 493/503 ([…]) (Cat #D-3922; Life Technologies) for 30 min and visualized by confocal microscopy (Carl Zeiss LSM510 Meta, 63×/1.4 NA oil). More than 30 cells were analyzed and LD numbers were quantified with the Image J software (NIH) in a 3D stack, as previously described in Geng 2016. […]

The subject of test [3] is GBM cells. Nature of the test: GBM cell death, trypan blue counting. Conditions: single inhibitor, 3 days.
Test [4] concerns HepG2 cells. Nature of the test: HepG2 cell death, trypan blue counting. The settings on record: DGAT1 and DGAT2 inhibitors alone or in combination, 3 days. The method, then: (A) RT-qPCR analysis of DGAT1 vs. DGAT2 mRNA expression in GBM cells (U251 and GBM30) and in liver cancer cell line (HepG2). The results are shown as mean±SD (n=3). Statistical significance was determined by a paired Student's t-test. *P<0.01; n.s., not significant. (B) Representative fluorescence imaging of LDs stained with BODIPY 493/503 (green) (upper panels) and TLC analysis of TG levels (lower panels) in GBM and liver cancer cells after treatments with the DGAT1 inhibitor A-922500 (20 μg/ml) or DGAT2 inhibitor PF-06424439 ([…]) alone or in combination for 24 hr. Nuclei were stained with Hoechst 33342 (blue). Scale bar, 10 m. LDs were quantified by the ImageJ software in more than 30 cells in each treatment group (mean±SEM). TG levels were quantified by the ImageJ software and normalized to the untreated control group (mean±SD, n=3). Statistical significance was determined by one-way ANOVA. * P<0.001; #P<0.05. (C) Percentage of dead GBM or liver cancer cells after treatment with DGAT1 or DGAT2 inhibitors alone or in combination for 3 days as in panel B. Live and dead cells were counted after trypan blue staining (mean SD, n=3). Statistical significance was determined by one-way ANOVA. * P<0.0001. […] Statistical significance was determined by one-way ANOVA. * P<0.01. […] Cell death percentage and significance were determined as in panel c (mean±SD, n=3). *P<0.0001; #P<0.001. […]

Where [5] appears, read: inhibition of both enzymes (A-922500 + PF-06424439).
[6] abbreviates: single inhibitor, 20 μg/ml, 24 hr.

In the case of `O=C(Nc1ccccc1)Nc1ccc(-c2ccc(C(=O)[C@@H]3CCC[C@H]3C(=O)O)cc2)cc1` [A-922500], the LDs/TG levels entry with GBM cells [1] is “did not result in further reduction”; in the test on HepG2 cells [2] (setting [5]), “strongly reduce”; with HepG2 cells [2] (setting [6]), “only slightly decreased”. Further, in the test on GBM cells [1], the “number of LDs and levels of TG” value is reported as “dramatically reduced the number of LDs”. Also, the GBM cell death entry in the test with GBM cells [3] is on record as “greatly induced marked GBM cell death”. In addition, the “cell death of HepG2 cells” value in the test with HepG2 cells [4] was “inhibition of both enzymes was required for cell death”.
Turning to `CS(=O)(=O)O.O=C([C@@H]1CCCN(c2ccc3[nH]c(C4(n5cc(Cl)cn5)CC4)nc3n2)C1)N1CCCC1` [PF-06424439], the values for the LDs/TG levels entry in the test on GBM cells [1], with HepG2 cells [2] (setting [5]) and in the test on HepG2 cells [2] (setting [6]) were “did not result in further reduction”, “strongly reduce” and “only slightly decreased”, respectively. Further, the “number of LDs and levels of TG” value in the test with GBM cells [1] was “minor reduction”. For the same compound, in the test with HepG2 cells [4], the “cell death of HepG2 cells” value was “inhibition of both enzymes was required for cell death”.
